We go through 15 compounds from patent US20250145665A1, “MACROCYCLIC PEPTIDES USEFUL AS MODULATORS OF TNF ALPHA” (Bristol-Myers Squibb Company, priority 2023, published 2025).

Starred links: 1 amine or outer side, 2 acyl side, 3 side chain; linkers in the order of their positions; H or OH if unused. Positions of bridges follow the written chain, without caps; N, C: chain ends. Non-standard residues stand in square brackets, D forms with d. Residues, ends and D or L forms follow the SMILES beside them. ξ: configuration not given here. X2 = O=C(O)c1ccc(CNC(=O)c2cccc(-c3ccc(C[C@H](N[*:1])C(=O)[*:2])cc3)c2)cc1; X5 = Cn1nc(C(=O)Nc2ccc(-c3ccc(C[C@H](N[*:1])C(=O)[*:2])cc3)cc2)c2ccccc21; Bip(4'-COOH) = N[C@@H](Cc1ccc(-c2ccc(C(=O)O)cc2)cc1)C(=O)O; Bip(4'-NHAc) = CC(=O)Nc1ccc(-c2ccc(C[C@H](N)C(=O)O)cc2)cc1; Ala(morpholin-4-yl) = N[C@@H](CN1CCOCC1)C(=O)O; X85 = N=C(N)c1cccc(C[C@H](N[*:1])C(=O)[*:2])c1; Bip = N[C@@H](Cc1ccc(-c2ccccc2)cc1)C(=O)O; Ala(2-furyl) = N[C@@H](Cc1ccco1)C(=O)O; Ala(4-THP) = N[C@@H](CC1CCOCC1)C(=O)O; 2Pal = N[C@@H](Cc1ccccn1)C(=O)O; 2Thi = N[C@@H](Cc1cccs1)C(=O)O; Cha = N[C@@H](CC1CCCCC1)C(=O)O; Chg = N[C@H](C(=O)O)C1CCCCC1; Tle = CC(C)(C)[C@H](N)C(=O)O; ξIle = CC[C@H](C)C(N)C(=O)O; Aze = O=C(O)[C@@H]1CCN1; ξV = CC(C)C(N)C(=O)O; Sar = CNCC(=O)O

Sequence of TNFα (P01375 77-233 limits assumed): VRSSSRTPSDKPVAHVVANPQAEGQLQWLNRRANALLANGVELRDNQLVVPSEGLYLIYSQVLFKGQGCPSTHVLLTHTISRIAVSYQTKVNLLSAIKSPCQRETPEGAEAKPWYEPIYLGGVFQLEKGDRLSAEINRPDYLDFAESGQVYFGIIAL

This test concerns the target TNFα (Homo sapiens, UniProt P01375). Description: TNF-Induced HEK-Blue Assay. It counts as cell-based. As to conditions: HEK-Blue-CD40L cells, NF-kB-driven secreted alkaline phosphatase reporter; TNFα 0.5 ng/ml; 18 h; read-out: TNF induced HEK-Blue assay IC50 value.
`CC(=O)Nc1ccc(-c2ccc(C[C@@H]3NC(=O)[C@H](Cc4ccc(-c5ccccc5)cc4)NC(=O)[C@H](CC4CCCCC4)NC(=O)CSC[C@@H](C(=O)NCC(N)=O)NC(=O)[C@H](CC(C)C)NC(=O)[C@H](Cc4ccco4)NC(=O)[C@H](C(C)C)NC(=O)[C@@H]4CCCN4C(=O)[C@H](C(C)C)NC(=O)[C@@H](CCCNC(=N)N)NC(=O)[C@H](CC(=O)O)NC(=O)[C@@H]4CCCN4C(=O)CN(C)C3=O)cc2)cc1` [Example 288] ({CH2CO}-[Cha][Bip][Bip(4'-NHAc)][Sar]PD[dR]VPV[Ala(2-furyl)]LCG-NH2; thioether N-13): the IC50 was 200 to 2000 nM.

With `CC(=O)Nc1ccc(-c2ccc(C[C@@H]3NC(=O)[C@H](Cc4ccc(-c5ccccc5)cc4)NC(=O)[C@H](CC4CCCCC4)NC(=O)CSC[C@@H](C(=O)NCC(N)=O)NC(=O)[C@H](CC(C)C)NC(=O)[C@H](Cc4cccs4)NC(=O)[C@H](C(C)C)NC(=O)[C@@H]4CCCN4C(=O)[C@H](C(C)C)NC(=O)[C@@H](CCCNC(=N)N)NC(=O)[C@H](CC(=O)O)NC(=O)[C@@H]4CCCN4C(=O)CN(C)C3=O)cc2)cc1` [Example 289] ({CH2CO}-[Cha][Bip][Bip(4'-NHAc)][Sar]PD[dR]VPV[2Thi]LCG-NH2; thioether N-13), the IC50 fell in the range of 50 to 200 nM.

With `CC[C@H](C)C1NC(=O)[C@@H]2CCCN2C(=O)[C@H]([C@@H](C)CC)NC(=O)[C@@H](CCCNC(=N)N)NC(=O)[C@H](CC(=O)O)NC(=O)[C@H](Cc2ccccn2)NC(=O)CN(C)C(=O)[C@H](Cc2ccc(-c3ccc(NC(C)=O)cc3)cc2)NC(=O)[C@H](Cc2ccc(-c3ccccc3)cc2)NC(=O)[C@H](CC2CCCCC2)NC(=O)CSC[C@@H](C(=O)NCC(N)=O)NC(=O)[C@H](CC(C)C)NC(=O)[C@H](CCCNC(=N)N)NC1=O` (stereo partly drawn) [Example 290] ({CH2CO}-[Cha][Bip][Bip(4'-NHAc)][Sar][2Pal]D[dR]IP[ξIle]RLCG-NH2; thioether N-13), the IC50 is 50 to 200 nM.

As for `CC[C@H](C)C1NC(=O)[C@@H]2CCCN2C(=O)[C@H]([C@@H](C)CC)NC(=O)[C@@H](CCCNC(=N)N)NC(=O)[C@H](CC(=O)O)NC(=O)[C@H](Cc2ccccn2)NC(=O)CN(C)C(=O)[C@H](Cc2ccc(-c3ccc(NC(C)=O)cc3)cc2)NC(=O)[C@H](Cc2ccc(-c3ccc(C(=O)O)cc3)cc2)NC(=O)[C@H](CC2CCCCC2)NC(=O)CSC[C@@H](C(=O)NCC(N)=O)NC(=O)[C@H](CC(C)C)NC(=O)[C@H](CCCNC(=N)N)NC1=O` (stereo partly drawn) [Example 291] ({CH2CO}-[Cha][Bip(4'-COOH)][Bip(4'-NHAc)][Sar][2Pal]D[dR]IP[ξIle]RLCG-NH2; thioether N-13), the IC50 is less than 50 nM.

For `CC[C@H](C)[C@@H]1NC(=O)[C@@H]2CCCN2C(=O)[C@H]([C@@H](C)CC)NC(=O)[C@@H](CCCNC(=N)N)NC(=O)[C@H](CC(=O)O)NC(=O)[C@H](Cc2cnc[nH]2)NC(=O)CN(C)C(=O)[C@H](Cc2ccc(-c3ccc(NC(C)=O)cc3)cc2)NC(=O)[C@H](Cc2ccc(-c3ccc(C(=O)O)cc3)cc2)NC(=O)[C@H](CN2CCOCC2)NC(=O)CSC[C@@H](C(=O)NCC(N)=O)NC(=O)[C@H](CC(C)C)NC(=O)[C@H](Cc2cnc[nH]2)NC1=O` [Example 292] ({CH2CO}-[Ala(morpholin-4-yl)][Bip(4'-COOH)][Bip(4'-NHAc)][Sar]HD[dR]IPIHLCG-NH2; thioether N-13), the IC50 was less than 50 nM.

As for `CC[C@H](C)[C@@H]1NC(=O)[C@@H]2CCCN2C(=O)[C@H]([C@@H](C)CC)NC(=O)[C@@H](CCCNC(=N)N)NC(=O)[C@H](CC(=O)O)NC(=O)[C@H](Cc2ccc(O)cc2)NC(=O)CN(C)C(=O)[C@H](Cc2ccc(-c3ccc(NC(C)=O)cc3)cc2)NC(=O)[C@H](Cc2ccc(-c3ccccc3)cc2)NC(=O)[C@H](CN2CCOCC2)NC(=O)CSC[C@@H](C(=O)NCC(N)=O)NC(=O)[C@H](CC(C)C)NC(=O)[C@H](Cc2cccs2)NC1=O` [Example 293] ({CH2CO}-[Ala(morpholin-4-yl)][Bip][Bip(4'-NHAc)][Sar]YD[dR]IPI[2Thi]LCG-NH2; thioether N-13), the IC50 is less than 50 nM.

Take `CC[C@H](C)[C@@H]1NC(=O)[C@@H]2CCN2C(=O)[C@H]([C@@H](C)CC)NC(=O)[C@@H](CCCNC(=N)N)NC(=O)[C@H](CC(=O)O)NC(=O)[C@H](Cc2ccc(O)cc2)NC(=O)CN(C)C(=O)[C@H](Cc2ccc(-c3ccc(NC(C)=O)cc3)cc2)NC(=O)[C@H](Cc2ccc(-c3ccccc3)cc2)NC(=O)[C@H](C(C)(C)C)NC(=O)CSC[C@@H](C(=O)NCC(N)=O)NC(=O)[C@H](CC(C)C)NC(=O)[C@H](Cc2ccc(O)cc2)NC1=O` [Example 294] ({CH2CO}-[Tle][Bip][Bip(4'-NHAc)][Sar]YD[dR]I[Aze]IYLCG-NH2; thioether N-13): the IC50 was less than 50 nM.

With `CC[C@H](C)[C@@H]1NC(=O)[C@@H]2CCCN2C(=O)[C@H]([C@@H](C)CC)NC(=O)[C@@H](CCCNC(=N)N)NC(=O)[C@H](CC(=O)O)NC(=O)[C@H](Cc2ccccc2)NC(=O)CN(C)C(=O)[C@H](Cc2ccc(-c3ccc(NC(C)=O)cc3)cc2)NC(=O)[C@H](Cc2ccc(-c3ccc(C(=O)O)cc3)cc2)NC(=O)[C@H](C(C)(C)C)NC(=O)CSC[C@@H](C(=O)NCC(N)=O)NC(=O)[C@H](CC(C)C)NC(=O)[C@H](Cc2cnc[nH]2)NC1=O` [Example 295] ({CH2CO}-[Tle][Bip(4'-COOH)][Bip(4'-NHAc)][Sar]FD[dR]IPIHLCG-NH2; thioether N-13), the IC50 is less than 50 nM.

On to `CC[C@H](C)[C@@H]1NC(=O)[C@@H]2CCCN2C(=O)[C@H]([C@@H](C)CC)NC(=O)[C@@H](CCCNC(=N)N)NC(=O)[C@H](CC(=O)O)NC(=O)[C@H](Cc2ccc(O)cc2)NC(=O)CN(C)C(=O)[C@H](Cc2ccc(-c3ccc(NC(C)=O)cc3)cc2)NC(=O)[C@H](Cc2ccc(-c3ccccc3)cc2)NC(=O)[C@H](C(C)(C)C)NC(=O)CSC[C@@H](C(=O)NCC(N)=O)NC(=O)[C@H](CC(C)C)NC(=O)[C@H](Cc2ccccc2)NC1=O` [Example 296] ({CH2CO}-[Tle][Bip][Bip(4'-NHAc)][Sar]YD[dR]IPIFLCG-NH2; thioether N-13), for which the IC50 is less than 50 nM.

Regarding `CC[C@H](C)[C@@H]1NC(=O)[C@@H]2CCCN2C(=O)[C@H]([C@@H](C)CC)NC(=O)[C@@H](CCCNC(=N)N)NC(=O)[C@H](CC(=O)O)NC(=O)[C@H](Cc2ccccn2)NC(=O)CN(C)C(=O)[C@H](Cc2ccc(-c3ccc(NC(C)=O)cc3)cc2)NC(=O)[C@H](Cc2ccc(-c3ccccc3)cc2)NC(=O)[C@H](C(C)(C)C)NC(=O)CSC[C@@H](C(=O)NCC(N)=O)NC(=O)[C@H](CC(C)C)NC(=O)[C@H](Cc2cccc(C(=N)N)c2)NC1=O` [Example 297] ({CH2CO}-[Tle][Bip][Bip(4'-NHAc)][Sar][2Pal]D[dR]IPI[X85]LCG-NH2; thioether N-13), the IC50 is less than 50 nM.

Regarding `CC[C@H](C)[C@@H]1NC(=O)[C@@H]2CCCN2C(=O)[C@H]([C@@H](C)CC)NC(=O)[C@@H](CCCNC(=N)N)NC(=O)[C@H](CC(=O)O)NC(=O)[C@H](Cc2ccco2)NC(=O)CN(C)C(=O)[C@H](Cc2ccc(-c3ccc(NC(C)=O)cc3)cc2)NC(=O)[C@H](Cc2ccc(-c3ccccc3)cc2)NC(=O)[C@H](C(C)(C)C)NC(=O)CSC[C@@H](C(=O)NCC(N)=O)NC(=O)[C@H](CC(C)C)NC(=O)[C@H](Cc2ccc(O)cc2)NC1=O` [Example 298] ({CH2CO}-[Tle][Bip][Bip(4'-NHAc)][Sar][Ala(2-furyl)]D[dR]IPIYLCG-NH2; thioether N-13), the IC50 lay within 50 to 200 nM.

With `CC[C@H](C)[C@@H]1NC(=O)[C@@H]2CCCN2C(=O)[C@H]([C@@H](C)CC)NC(=O)[C@@H](CCCNC(=N)N)NC(=O)[C@H](CC(=O)O)NC(=O)[C@@H]2CCCN2C(=O)CN(C)C(=O)[C@H](Cc2ccc(-c3ccc(NC(C)=O)cc3)cc2)NC(=O)[C@H](Cc2ccc(-c3ccc(C(=O)O)cc3)cc2)NC(=O)[C@H](C(C)(C)C)NC(=O)CSC[C@@H](C(=O)NCC(N)=O)NC(=O)[C@H](CC(C)C)NC(=O)[C@H](Cc2ccc(O)cc2)NC1=O` [Example 300] ({CH2CO}-[Tle][Bip(4'-COOH)][Bip(4'-NHAc)][Sar]PD[dR]IPIYLCG-NH2; thioether N-13), the IC50 fell in the range of 50 to 200 nM.

In the case of `CC(=O)Nc1ccc(-c2ccc(C[C@@H]3NC(=O)[C@H](Cc4ccc(-c5ccccc5)cc4)NC(=O)[C@H](CC4CCCCC4)NC(=O)CSC[C@@H](C(=O)NCC(N)=O)NC(=O)[C@H](CC(C)C)NC(=O)[C@H](Cc4cnc[nH]4)NC(=O)[C@H](C4CCCCC4)NC(=O)[C@@H]4CCCN4C(=O)[C@H](CC(N)=O)NC(=O)[C@@H](CCCNC(=N)N)NC(=O)[C@H](CC(=O)O)NC(=O)[C@H](Cc4cnc[nH]4)NC(=O)CN(C)C3=O)cc2)cc1` [Example 301] ({CH2CO}-[Cha][Bip][Bip(4'-NHAc)][Sar]HD[dR]NP[Chg]HLCG-NH2; thioether N-13), the IC50 lay within 50 to 200 nM.

For `CC(C)C[C@@H]1NC(=O)[C@H](CCCNC(=N)N)NC(=O)C(C(C)C)NC(=O)[C@@H]2CCCN2C(=O)[C@H](C(C)C)NC(=O)[C@@H](CCCNC(=N)N)NC(=O)[C@H](CC(=O)O)NC(=O)[C@@H]2CCCN2C(=O)CN(C)C(=O)[C@H](Cc2ccc(-c3cccc(C(=O)NCc4ccc(C(=O)O)cc4)c3)cc2)NC(=O)[C@H](Cc2ccc(-c3ccccc3)cc2)NC(=O)[C@H](CC2CCOCC2)NC(=O)CSC[C@@H](C(=O)NCC(N)=O)NC1=O` (stereo partly drawn) [Example 303] ({CH2CO}-[Ala(4-THP)][Bip][X2][Sar]PD[dR]VP[ξV]RLCG-NH2; thioether N-13), the IC50 was in the range of 200 to 2000 nM.

`CC(C)C[C@@H]1NC(=O)[C@H](CCCNC(=N)N)NC(=O)[C@H](C(C)C)NC(=O)[C@@H]2CCCN2C(=O)[C@H](C(C)C)NC(=O)[C@@H](CCCNC(=N)N)NC(=O)[C@H](CC(=O)O)NC(=O)[C@@H]2CCCN2C(=O)CN(C)C(=O)[C@H](Cc2ccc(-c3ccc(NC(=O)c4nn(C)c5ccccc45)cc3)cc2)NC(=O)[C@H](Cc2ccc(-c3ccccc3)cc2)NC(=O)[C@H](CC2CCOCC2)NC(=O)CSC[C@@H](C(=O)NCC(N)=O)NC1=O` [Example 304] ({CH2CO}-[Ala(4-THP)][Bip][X5][Sar]PD[dR]VPVRLCG-NH2; thioether N-13): the IC50 was less than 50 nM.

Broadly, the IC50 is the concentration that inhibits the measured activity by half.
